Test results reported in patent US10568975B2, “Nanoparticles for magnetic resonance imaging tracking and methods of making and using thereof” (The Johns Hopkins University, priority 2013, dated 2020).

Test: CEST contrast of surface-conjugated polymeric nanoparticles and DYD peptide
Format: physicochemical
Method: Polymeric particle preparation: The peptide contrast agent, propargylglycine-W-(DYD)6-NH2, was synthesized on a microwave-assisted peptide synthesizer Libertyl (CEM, USA). The CEST nanoparticles were then prepared by standard coupling chemistry. NH2PEG-N3 was coupled to carboxylates on the surface of polystyrene (PS) particles in the presence of EDC and NHS in 200 mM sodium borate buffer pH 7.8 at RT. Propargylglycine-W-(DYD)6-NH2 peptide was coupled with PS-PEG-N3 in the presence of catalytic amount of CuAcAc, TBTA, and excess ascorbic acid in sodium phosphate buffer pH 7, under nitrogen, using click chemistry. Biodegradable CEST nanoparticles based on the polymer of poly(lactic-co-glycolic) acid-co-PEG (PLGA-PEG) were synthesized using a similar procedure and formulated using a oil-in-water emulsion method.
The nanoparticles are suitable for tumor delivery. As the interior of the nanoparticles has reduced water accessibility compared to liposomes, the CEST agent was conjugated to the surface of the particle as shown in FIGS. 5(a) through 5(c). Two versions were prepared, one with a short (0.6 kDa) and a second with a longer PEG spacer (5.6 kDa). […] The DYD peptide provides contrast centered around 2.5 ppm from water, which should allow discrimination with the BA liposomes through multi-color CEST imaging.

propargylglycine-W-(DYD)6-NH2 [DYD peptide]
CEST contrast centre, offset from water: around 2.5 ppm
